# Measurements as given in publication PMC10532587, “An Investigation of Structure–Activity Relationships and Cell Death Mechanisms of the Marine Alkaloids Discorhabdins in Merkel Cell Carcinoma Cells” (Marine Drugs, 2023).
# Where two headings read alike, the source gives them in different places.
# Assays:
# HaCaT = assay: Cell survival by CellTiterGlo, control cells; type: cell-based, human; conditions: for AUC (arbitrary units) HaCaT: area under the dose-response curve, control cells; for IC50: Homo sapiens, HaCaT, control skin cell line, CellTiterGlo, normalized to DMSO, read-out: IC50 (nM) HaCaT
# MCC13 = assay: Cell survival by CellTiterGlo, VN-MCC line MCC13; type: cell-based; conditions: for AUC (arbitrary units) MCC13: area under the dose-response curve; for IC50: CellTiterGlo, normalized to DMSO
# MCC26 = assay: Cell survival by CellTiterGlo, VN-MCC line MCC26; type: cell-based; conditions: for AUC (arbitrary units) MCC26: area under the dose-response curve; for IC50: CellTiterGlo, normalized to DMSO
# UISO = assay: Cell survival by CellTiterGlo, VN-MCC line UISO; type: cell-based; conditions: for AUC (arbitrary units) UISO: area under the dose-response curve; for IC50: CellTiterGlo, normalized to DMSO
# MKL-1 = assay: Cell survival by CellTiterGlo, VP-MCC line MKL-1; type: cell-based; conditions: for IC50: MKL-1, CellTiterGlo; for AUC (arbitrary units) MKL-1: area under the dose-response curve
# Waga = assay: Cell survival by CellTiterGlo, VP-MCC line Waga; type: cell-based; conditions: for AUC (arbitrary units) WaGa: area under the dose-response curve; for IC50: CellTiterGlo, normalized to DMSO
# [1] = test system: control (HaCaT) and Merkel cell carcinoma cell lines; assay: Cell survival by CellTiterGlo, all seven cell lines; type: cell-based; conditions: for IC50: Homo sapiens, HaCaT
# Method: Three methods were employed for assessment of MCC and control cell survival/viability after discorhabdin treatment, two metabolic assays and a cell permeability assay. For all three methods, cells were plated in 384-well plates at 2500 cells/well and treated with various concentrations of discorhabdins for various time periods. CellTiterGlo^TM (Promega, Madison, WI, USA) measures cellular ATP content and was used to estimate potency of discorhabdins in cell viability assays as previously described. Continuous monitoring of metabolic activity was accomplished using a cellular reducing potential luminescence assay, the RealTime-Glo^TM MT Cell Viability Assay (Promega, Madison, WI, USA) according to manufacturer’s instructions. Loss of cell plasma membrane integrity was assessed using a cell-impermeant molecule that becomes fluorescent upon binding DNA [82] in parallel with apoptosis detection per manufacturer’s instructions (RealTimeGlo^TM Annexin V Apoptosis and Necrosis Assay-Promega). Two additional assays of apoptotic cell death were also used. Caspase activation in response to treatment of MCC cells by discorhabdins or bortezomib (as a positive control) was measured using the CaspaseGlo® 3/7 Assay (Promega, Madison, WI, USA) according to the manufacturer’s instructions at multiple time points. Inhibition of apoptotic cell death was investigated using pre-treatment of cells with for 1 h with the pan-caspase inhibitor Z-VAD-FMK (Enzo Life Sciences, Farmingdale, NY, USA) followed by treatment with discorhabdins or bortezomib and estimation of cell viability as outlined above.
# In order to compare responses among all of the discorhabdins and cell lines (98 combinations), dose–response curves were generated using identical discorhabdin dilution series. GraphPad Prism 8 (San Diego, CA, USA) software was utilized to graph dose–response data and to calculate IC50 values and area under the dose–response curves (AUC) along with 95% confidence interval estimates using four-parameter logistic nonlinear regression analysis. For further analysis and comparisons, AUC for each cell line/discorhabdin pair was visualized in a heatmap generated in R version 1.3.1073 (R Core Team (2013). R: A language and environment for statistical computing. R Foundation for Statistical Computing, Vienna, Austria, http://www.R-project.org/ (accessed on 12 January 2023).
# Figure S39: Activity of discorhabdins against M CC cell lines.
# The indicated discorh abd ins were ass essed for th eir ability to affect surviv al of control (H aCaT) and Merkel cell carcino ma cell lines (VN-MCC: MCC13, MCC26, UISO and VP -MCC: MKL-1, MKL-2, Wag a). Cells were plat ed at 2500 cells/well and compounds the next day. Cell survival was estimated by CellTiterGlo (normalized to untreated (DMSO) cells on the same plate). Structures w ere o btained from the supplier and/or the PubChem database or as described in the text. Number in bold in ( ) refers to structures in Figure 1 in the text. Curves were plotted and IC50 values and 95% confidence interval calculated by GraphPad software. […]
# MKL-2 = assay: Cell survival by CellTiterGlo, VP-MCC line MKL-2; type: cell-based; conditions: for IC50: CellTiterGlo, normalized to DMSO; for AUC (arbitrary units) MKL-2: area under the dose-response curve
# [2] = CellTiterGlo, 10 µM highest concentration tested, read-out: IC50, all cell lines
# [3] = essentially inactive compounds, read-out: average IC50 against all the cell lines
# [4] = VP-MCC, normalized to DMSO, read-out: IC50 (nM) MKL-1
Compound,AUC (arbitrary units) HaCaT (HaCaT) [arbitrary units],AUC (arbitrary units) MCC13 (MCC13) [arbitrary units],AUC (arbitrary units) MCC26 (MCC26) [arbitrary units],AUC (arbitrary units) UISO (UISO) [arbitrary units],"IC50 (MKL-1; printed in brackets beside the all-cell-lines bound, read-out: IC50 MKL-1) [nM]",AUC (arbitrary units) MKL-1 (MKL-1; VP-MCC) [arbitrary units],AUC (arbitrary units) WaGa (Waga) [arbitrary units],"IC50 [1, 2] [µM]","IC50 [1, 3] [µM]",IC50 (HaCaT) [nM],IC50 (MCC13) [nM],IC50 (MCC26) [nM],IC50 (UISO) [nM],IC50 (MKL-1; [4]) [nM],IC50 (Waga) [nM],IC50 (MKL-2) [nM],AUC (arbitrary units) MKL-2 (MKL-2) [arbitrary units],"activity on cell viability, in words ([1]; MCC and control cell lines)"
"O=C1C=CC2(C=C1)CCNC1=C2C2=NCCc3c[nH]c(c32)C1=O [Compound 21, didebromodiscorhabdin C]",952.2,883,866.1,851.9,> 5000,682.4,973.8,> 10,> 5,–,–,–,–,–,–,–,–,–
"O=C1C(Br)=CC2(C=CNC3=C2C2=NCCc4c[nH]c(c42)C3=O)C=C1Br [Compound 20, 7,8-dehydrodiscorhabdin C]",940.1,694.4,815.8,542.4,–,376.3,661,–,> 5,> 10000,7480,~10000,5570,3260,7430,–,–,–
"CSC1=CC(=O)C=C2S[C@H]3C[C@@]12C1=C(N3)C(=O)c2[nH]cc3c2C1=NCC3 [Compound 7, (+)-(6R,8S) thiomethyldiscorhabdin G*/I]",745.5,495.1,638.2,360.8,–,144.5,321.6,–,–,7960,4500,7890,3270,1230,2990,–,–,–
"O=C1C2=C(C3=NCCc4c[nH]c1c43)C1(C=C(Br)C(O)C(Br)=C1)CCN2 (stereo not shown) [Compound 16, 3-dihydrodiscorhabdin C]",454.5,404,543.3,375.8,–,195.9,370.5,–,–,4130,3470,4700,3090,1630,3200,1940,277.4,–
"Cn1cnc(SC2=CC(=O)C=C3S[C@H]4C[C@@]23C2=C(N4)C(=O)c3[nH]cc4c3C2=NCC4)c1C[C@H](N)C(=O)O (relative stereo) [Compound 5, (+)-(6S,8S,7′S*) discorhabdin K]",944.5,837.7,841.3,767.7,–,335,660.5,–,> 5,> 10000,> 10000,> 10000,8300,3030,6150,–,–,–
"O=C1C2=C(C3=NCCc4c[nH]c1c43)c1c(cc(Br)c(O)c1Br)CCN2 [Compound 24, discorhabdin C phenol]",884.9,528.6,708.7,493.2,–,279.7,611.2,–,–,> 10000,4640,6920,4210,2330,5460,–,–,–
"O=C1C=C2S[C@H]3C[C@]2(C=C1Br)C1=C(N3)C(=O)c2[nH]cc3ccnc1c23 [Compound 3, (+)-(6S,8S) discorhabdin Q]",604.2,419.1,432.3,447.9,–,389.4,405.1,–,–,5450,3500,3760,3850,3440,3290,2040,350.1,–
"Cn1cc2c3c1C(=O)C1=C(C3=NCC2)[C@]2(C=CC(=O)C(Br)=C2)CCN1 [Compound 23, (+)-(6S)-N-13-methyldiscorhabdin E]",319.6,155.7,306.3,90.78,–,23.33,65.1,–,–,2980,1290,2880,781,186,546,–,–,–
"O=C(O)CNC1C2C(=O)C=C3SC4CC31C1=C(N4)C(=O)c3[nH]cc4c3C1=[N+]2CC4 (single isomer, unassigned; (-)) [Compound 13]",909,478.7,719.3,436.7,–,83.43,200.7,–,–,> 10000,3820,> 6000,3420,682,1560,2910,391.1,–
"O=C1C=C(S(=O)(=O)O)[C@@]2(C=CNC3=C2C2=NCCc4c[nH]c(c42)C3=O)C=C1Br [Compound 9, (+)-(6S) sulphonyl-7,8-dehydrodiscorhabdin E]",911.5,882.5,793.9,914.8,–,917.6,949.7,> 10,> 5,–,–,–,–,–,–,–,–,practically inactive
"O=C1C2=C3C4=[N+](CCc5c[nH]c1c54)[C@H]1C[C@@]34C[C@@H](N2)SC4=CC1=O [Compound 11, (+)-(2S,6R,8S) discorhabdin D]",715.8,540.6,653.2,423.9,–,60.49,216.6,–,–,> 6000,5000,5850,3620,497,1810,865,143.2,–
